48 molecules from patent US20240246941A1, “SUBSTITUTED 4-(3-AMINOPROP-1-YL)AMINOQUINOLINE ANALOGS AS MODULATORS OF MELANOMA-ASSOCIATED ANTIGEN 11 UBIQUITIN LIGASE” (ST. JUDE CHILDREN'S RESEARCH HOSPITAL, INC., priority 2020, published 2024) can be followed below.

Where two headings read alike, the source gives them in different places. Where a SMILES comes first, the peptide text is derived from it. [ ]: non-standard residue; d: D form. Phe(4-CN) = N#Cc1ccc(C[C@H](N)C(=O)O)cc1; Phe(3-Me) = Cc1cccc(C[C@H](N)C(=O)O)c1

The test concerns the target interaction between GST-MAGEA11 MHD and FAM-PCF11_4 peptide (MAGE-A11:PCF11) (Homo sapiens (Human), UniProt P43364). Kind of test: TR-FRET dose response competition assay for disruption of MAGE-A11:PCF11 binding. From the text:
TR-FRET Assays and High-throughput Screen. Terbium-anti-GST antibody, 1 M Tris pH 7.5 1 M MgCl2 and 1 M DTT were purchased from Invitrogen (Carlsbad, CA), BSA was purchased from Sigma (St. Louis, MO). Dimethyl sulfoxide (DMSO) was purchased from Fisher Scientific (Pittsburgh, PA). Black 384-well low volume plates and 384-well polypropylene compound plates were purchased from Corning Incorporated (Tewksbury, MA). The St. Jude FDA drug and Bioactive library (11,293 chemicals), Drug-like library (10,073 chemicals) and Lead-like library (10,041 chemicals) were custom assembled and purchased from commercial sources including Sigma, Microsource (Gaylordsville, CT), selleckchem (Houston, TX), ChemDiv (San Diego, CA), ChemBridge (San Diego, CA), Enamine (Monmouth Jct., NJ), and Life Chemicals (Niagara-on-the-Lake, ON, Canada). They were arrayed (10 mM in DMSO) in 384-well polypropylene compound plates with columns 1, 2, 13 and 14 empty which were reserved for controls.
The TR-FRET assay buffer with a formula of 50 mM Tris pH 7.5, 20 mM MgCl2, 0.1 mg/ml BSA and 1 mM DTT was freshly prepared before each experiment. All TR-FRET assays were performed in black 384-well plates with 20 μl/well assay volume in the TR-FRET assay buffer at room temperature (approximately 25° C.). All peptides or compounds were solubilized in DMSO. To test the competitive activity of peptides or compounds against the interaction between GST-MAGEA11 MHD and FAM-PCF11_4 peptide, 10 μl/well peptide or compound at specified concentration was dispensed into a black 384-well low volume plate, followed by 5 μl/well FAM-PCF11_4 (800 nM), 5 μl/well Tb-anti-GST (20 nM) and GST-MAGEA11 MHD (20 nM). The assay components in each well was then mixed by shaking the plate on an IKA MTS 2/4 digital microtiter plate shaker (IKA Works; Wilmington, NC, USA) at 900 RPM for 1 minute. The plate was further centrifuged in an Eppendorf 5810 centrifuge with an A-4-62 swing-bucket rotor (Eppendorf AG, Hamburg, Germany) at 201 g (1000 rpm) for 30 seconds. The plate was then incubated for 90 min with a lid to avoid light exposure to the assay components. After incubation, the fluorescent emission signals at 520 nm and 490 nm channels of individual wells were measured with a PHERAstar FS plate reader (BMG Labtech; Durham, NC, USA) by using a 340 nm excitation filter, 100 μs delay time, and 200 μs integration time. The TR-FRET fluorescence emission ratio (TR-FRET signal) for each well was presented as 10 000×520 nm/490 nm, which was used directly for curve fitting, or further converted to % Inhibition based on the respective positive and negative controls. The graphic software GraphPad Prism 4.81 (GraphPad Software; La Jolla, CA, USA) was used to generate curves and derive IC50 values of tested peptides or compounds, if applicable.
TR-FRET inhibitory activity characterization of a panel of PCF11 peptides against the interaction between GST-MAGEA11 MHD and FAM-PCF11_4 was performed as follows. In a 20 μl/well assay volume, dilutions of PCF11_1 to PCF11_8 peptides (concentrations ranged from 3.1 nM to 100 μM for peptides PCF11_4, PCF11_5, PCF11_6 and PCF11_8 in a 1-to-2 dilution pattern for 16 concentration levels, and ranged from 48.9 nM to 100 μM for peptides of PCF11_1, PCF11_2, PCF11_3 and PCF11_7 in a 1-to-2 dilution pattern for 12 concentration levels), 200 nM FAM-PCF11_4, 5 nM Tb-anti-GST and 5 nM GST-MAGEA11 were mixed together and incubated for 90 min before the TR-FRET signal for each well was measured. The final DMSO concentration was 1.1% (v/v). […] The signal of each peptide-treated well (Signalpeptide) was normalized to the positive and negative controls to derive % inhibition of the peptide at a specific concentration with equation 1. Where applicable, the % Inhibition data were fit into a Sigmoidal dose response equation to derive IC50 values.
TR-FRET screen for identifying MAGEA11 small molecule inhibitors was performed as follows.

Where [1] appears, read: PCF11 peptides, read-out: IC50 of PCF11 peptides binding to GST-MAGE-A11 by TR-FRET.
The mark [2] stands for this setting: Dose response TR-FRET screening of nine scaffold groups against MAGE-A11:PCF11, read-out: consensus IC50.

interaction between GST-MAGEA11 MHD and FAM-PCF11_4 peptide (MAGE-A11:PCF11), sequence (P43364 218-429): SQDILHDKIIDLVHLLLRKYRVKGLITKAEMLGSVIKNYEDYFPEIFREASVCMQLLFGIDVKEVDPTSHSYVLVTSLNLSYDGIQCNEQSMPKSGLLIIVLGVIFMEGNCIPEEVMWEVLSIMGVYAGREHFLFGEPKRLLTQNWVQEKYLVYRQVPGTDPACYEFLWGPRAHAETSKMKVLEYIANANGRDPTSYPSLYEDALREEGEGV

Consider `CC[C@H](C)[C@H](NC(=O)[C@H](CCC(N)=O)NC(=O)[C@H](Cc1c[nH]cn1)NC(=O)[C@@H](NC(=O)[C@@H](NC(=O)[C@@H](NC(=O)[C@H](CC(C)C)NC(=O)[C@@H](N)Cc1ccccc1)C(C)C)C(C)C)C(C)C)C(=O)N[C@@H](CCCNC(=N)N)C(=O)N[C@@H](CCC(N)=O)C(=O)N[C@@H](CC(C)C)C(=O)N[C@@H](Cc1cccc(C)c1)C(=O)N[C@@H](CCC(N)=O)C(=O)O` [3-methyl-phenylanaline] (H-FLVVVHQIRQL[Phe(3-Me)]Q-OH; N-terminus and C-terminus assumed), for which, under setting [1], the IC50 was determined as 0.0017 µM. With `CC[C@H](C)[C@H](NC(=O)[C@H](CCC(N)=O)NC(=O)[C@H](Cc1c[nH]cn1)NC(=O)[C@@H](NC(=O)[C@@H](NC(=O)[C@@H](NC(=O)[C@H](CC(C)C)NC(=O)[C@@H](N)Cc1ccccc1)C(C)C)C(C)C)C(C)C)C(=O)N[C@@H](CCCNC(=N)N)C(=O)N[C@@H](CCC(N)=O)C(=O)N[C@@H](CC(C)C)C(=O)N[C@@H](Cc1ccc(C#N)cc1)C(=O)N[C@@H](CCC(N)=O)C(=O)O` [4-cyano-phenylalaninnne] (H-FLVVVHQIRQL[Phe(4-CN)]Q-OH; N-terminus and C-terminus assumed), the IC50 under setting [1] was 0.663 µM.

Consider `COc1ccc(F)cc1CNCCCNc1ccnc2cc(Cl)ccc12` [SJ000000500-3], for which the IC50 under setting [2] worked out at 69.9 µM. `COc1ccc(F)cc1CNCCCNc1ccnc2cc(Cl)ccc12` [SJ000000500]: for the setting “Table 8, representative compounds, read-out: TR-FRET IC50”, the IC50 stood at 69.9 µM. In the case of `N#Cc1nc(-c2ccc(Cl)cc2)oc1N1CCOCC1` [SJ000010022-1], under setting [2], the IC50 was determined as 69.9 µM.

Turning to `N#Cc1nc(-c2ccc(F)cc2)oc1N1CCOCC1` [SJ000011204-1], the IC50 under setting [2] is 69.9 µM.

As for `CCCN1C(=O)c2ccccc2NC1c1ccc(O)c(OCC)c1` (stereo not drawn) [SJ000019510-1], the IC50 under setting [2] was found to be 69.9 µM. The same measure, in the same setting: the value for `Cc1ccc(C2Nc3ccccc3C(=O)N2Cc2ccccc2)cc1` (stereo not drawn) [SJ000019545-2] was 69.9 µM; that for `O=C1c2ccccc2NC(c2ccc(Br)cc2)N1Cc1ccccc1` (stereo not drawn) [SJ000019546-2] was 69.9 µM; that for `O=C1c2ccccc2NC(c2ccc(Cl)cc2)N1Cc1ccccc1` (stereo not drawn) [SJ000019547-2] was 69.9 µM. On the same count and under the same terms, the value for `Cc1ccc(S(=O)(=O)N2CCN(C3=C(Cl)C(=O)c4ccccc4C3=O)CC2)cc1` [SJ000021282-1] was 10.4 µM; that for `O=C(O)c1cccc(NC2=C(Cl)C(=O)c3ccccc3C2=O)c1` [SJ000022282-2] was 69.9 µM; that for `O=C1C(Cl)=C(Nc2ccc(Br)cc2)C(=O)c2ccccc21` [SJ000024921-1] was 69.9 µM. Same read-out and setting: under `CC(=O)Nc1ccc(NC2=C(Cl)C(=O)c3ccccc3C2=O)cc1` [SJ000024922-1] stands 69.9 µM; under `CCCCOC(=O)c1ccc(NC2=C(Cl)C(=O)c3ccccc3C2=O)cc1` [SJ000024923-1], 69.9 µM. As for `O=C1C(Cl)=C(Nc2cccc(C(F)(F)F)c2)C(=O)c2ccccc21` [SJ000024924-2], under setting [2], the IC50 came to 69.9 µM.

For `Cc1cccc(NC2=C(Cl)C(=O)c3ccccc3C2=O)c1` [SJ000024925-1], under setting [2], the concentration for half-maximal inhibition (IC50) was found to be 69.9 µM. Same read-out and setting: under `COC(=O)c1cccc(NC2=C(Cl)C(=O)c3ccccc3C2=O)c1` [SJ000024926-1] stands 69.9 µM; under `O=C1C(Cl)=C(NC(=O)C(F)(F)F)C(=O)c2ccccc21` [SJ000024928-1], 9.87 µM. The same measure, in the same setting: under `CC(=O)N(C1=C(Cl)C(=O)c2ccccc2C1=O)c1cccc(I)c1` [SJ000024931-1] stands 69.9 µM; under `Cc1cccc(NC2=C(N)C(=O)c3ccccc3C2=O)c1` [SJ000024934-1], 69.9 µM; under `CC(=O)N(C1=C(Cl)C(=O)c2ccccc2C1=O)c1ccc(C(=O)O)cc1` [SJ000024935-1], 69.9 µM. Still for that read-out and setting: under `CC(=O)N(C1=C(Cl)C(=O)c2ccccc2C1=O)c1ccc(F)cc1` [SJ000024947-1] stands 69.9 µM; under `CCCN1C(=O)c2ccccc2NC1c1ccc(F)cc1` (stereo not drawn) [SJ000026516-2], 69.9 µM; under `CCCN1C(=O)c2ccccc2NC1c1ccc(OC)c(OC)c1` (stereo not drawn) [SJ000026517-1], 69.9 µM. In the case of `CCCN1C(=O)c2ccccc2NC1c1ccc(OC)cc1` (stereo not drawn) [SJ000026518-2], the IC50 under setting [2] amounted to 69.9 µM. Still for that read-out and setting: under `O=C1c2ccccc2NC(c2ccc(F)cc2)N1Cc1ccccc1` (stereo not drawn) [SJ000026596-1] stands 69.9 µM; under `Cc1ccc(S(=O)(=O)c2nc(-c3cccc(C)c3)oc2N2CCOCC2)cc1` [SJ000027480-1], 11.2 µM; under `O=S(=O)(c1ccc(Cl)cc1)c1nc(-c2cccc(Br)c2)oc1N1CCOCC1` [SJ000027481-1], 9.2 µM. The same measure, in the same setting: the value for `Cc1ccc(S(=O)(=O)c2nc(-c3cccc([N+](=O)[O-])c3)oc2N2CCOCC2)cc1` [SJ000027482-1] was 9.54 µM.

Turning to `C=C1C(Cl)=C(N2CCN(S(=O)(=O)c3ccc(Cl)cc3)CC2)C(=O)c2ccccc21` [SJ000029651-1], the IC50 under setting [2] was 69.9 µM.

Consider `CCOc1ccc(N(C(C)=O)C2=C(Cl)C(=O)c3ccccc3C2=O)cc1` [SJ000030567-2], for which, under setting [2], the IC50 turned out to be 69.9 µM. Still for that read-out and setting: under `O=C(CNC(=O)c1ccc2[nH]c3ccccc3c2c1)NCCO` [SJ000031064-1] stands 69.9 µM; under `O=C(NCCO)c1ccc2[nH]c3ccccc3c2c1` [SJ000031065-1], 69.9 µM; under `CCOC(=O)c1ccc(NC2=C(N)C(=O)c3ccccc3C2=O)cc1` [SJ000032711-1], 69.9 µM.

For the molecule `NC1=C(Nc2ccc(I)cc2)C(=O)c2ccccc2C1=O` [SJ000032712-1], the IC50 under setting [2] worked out at 69.9 µM. Same read-out and setting: under `NC1=C(Nc2ccc(Br)cc2)C(=O)c2ccccc2C1=O` [SJ000032713-1] stands 69.9 µM; under `CCCCOc1ccc(N(C(C)=O)C2=C(Cl)C(=O)c3ccccc3C2=O)cc1` [SJ000032717-1], 8.71 µM; under `CCCCCOc1ccc(NC2=C(N)C(=O)c3ccccc3C2=O)cc1` [SJ000032723-1], 69.9 µM.

Regarding `CCCCCOc1ccc(N(C(C)=O)C2=C(Cl)C(=O)c3ccccc3C2=O)cc1` [SJ000032724-1], the IC50 under setting [2] was 28.3 µM.

Consider `O=C1C(Cl)=C(N2CCN(S(=O)(=O)c3ccc(Br)cc3)CC2)C(=O)c2ccccc21` [SJ000033014-1], for which, under setting [2], the IC50 was 69.9 µM. The same measure, in the same setting: the value for `CC(=O)Nc1ccc(S(=O)(=O)N2CCN(C3=C(Cl)C(=O)c4ccccc4C3=O)CC2)cc1` [SJ000036320-1] was 69.9 µM. On to `COc1cccc(-c2nc(S(=O)(=O)c3ccc(C)cc3)c(N3CCOCC3)o2)c1` [SJ000038123-1], for which the half-maximal inhibitory concentration (IC50) under setting [2] is 17.4 µM. The same measure, in the same setting: under `COc1cccc(-c2nc(S(=O)(=O)c3ccc(Cl)cc3)c(N3CCOCC3)o2)c1` [SJ000038124-1] stands 7.43 µM. `O=C1C(Cl)=C(N2CCN(S(=O)(=O)c3ccc(F)cc3)CC2)C(=O)c2ccccc21` [SJ000038882-1]: the IC50 under setting [2] is 69.9 µM. For `CCOc1ccc(-c2nc(C#N)c(N3CCOCC3)o2)cc1` [SJ000041896-1], the IC50 under setting [2] was found to be 69.9 µM.

As for `CCOc1ccc(Nc2nc(N)c3ccccc3n2)cc1` [SJ000045621-1], under setting [2], the IC50 was determined as 69.9 µM. Turning to `Nc1nc(Nc2ccc(O)cc2)nc2ccccc12` [SJ000045622-1], under setting [2], the half-maximal inhibitory concentration (IC50) was 69.9 µM.
